Test results taken from ChEMBL document CHEMBL4219030, “Progress in the discovery of small molecule modulators of the Cys-loop superfamily receptors” (Bioorg Med Chem Lett, 2017).

How the values were obtained:
[1] = target: GABA A receptor alpha-5/beta-3/gamma-2 (Rattus norvegicus, UniProt P18508+P19969+P63079); assay: Displacement of [3H]-flunitrazepam from recombinant rat GABAA receptor alpha5beta3gamma2S expressed in HEK293 cell membranes after 90 mins by liquid scintillation counting method
[2] = target: Gamma-aminobutyric acid receptor subunit alpha-1/beta-3/gamma-2 (Rattus norvegicus, UniProt P18508+P62813+P63079); assay: Displacement of [3H]-flunitrazepam from recombinant rat GABAA receptor alpha1beta3gamma2S expressed in HEK293 cell membranes after 90 mins by liquid scintillation counting method
[3] = target: Gamma-aminobutyric acid receptor subunit alpha-2/beta-3/gamma-2 (Rattus norvegicus, UniProt P18508+P23576+P63079); assay: Displacement of [3H]-flunitrazepam from recombinant rat GABAA receptor alpha2beta3gamma2S expressed in HEK293 cell membranes after 90 mins by liquid scintillation counting method
[4] = target: Gamma-aminobutyric acid receptor subunit alpha-3/beta-3/gamma-2 (Rattus norvegicus, UniProt P18508+P20236+P63079); assay: Displacement of [3H]-flunitrazepam from recombinant rat GABAA receptor alpha3beta3gamma2S expressed in HEK293 cell membranes after 90 mins by liquid scintillation counting method
[5] = target: T1, GABA A receptor alpha-4/beta-3/gamma-2 (Homo sapiens, UniProt P18507+P28472+P48169); assay: Positive allosteric modulation of recombinant human GABAA receptor alpha4beta3gamma2 expressed in Xenopus laevis oocytes assessed as potentiation of GABA induced chloride currents relative to GABA; assay type: cell-based
[6] = target: T2, GABA-A receptor; alpha-2/beta-3/gamma-2 (Homo sapiens) (UniProt P18507+P28472+P47869); assay: Positive allosteric modulation of recombinant human GABAA receptor alpha2beta3gamma2 expressed in Xenopus oocytes assessed as potentiation of GABA induced chloride currents relative to GABA; assay type: cell-based
[7] = target: T1, GABA A receptor alpha-4/beta-3/gamma-2; assay: Displacement of [3H][…] from human GABAA receptor alpha4beta3gamma2 expressed in LTK cells […]; assay type: cell-based
[8] = target: GABA-A receptor; alpha-6/beta-3/gamma-2 (Homo sapiens) (UniProt P18507+P28472+Q16445); assay: Positive allosteric modulation of recombinant human GABAA receptor alpha6beta3gamma2 expressed in Xenopus oocytes assessed as potentiation of GABA induced chloride currents relative to GABA; assay type: cell-based
[9] = target: GABA-A receptor; alpha-5/beta-3/gamma-2 (Homo sapiens, UniProt P18507+P28472+P31644); assay: Displacement of [3H]Ro15-1788 from human GABAA receptor alpha5beta3gamma2 expressed in LTK cells […]; assay type: cell-based
[10] = target: GABA-A receptor; alpha-3/beta-3/gamma-2 (Homo sapiens) (UniProt P18507+P28472+P34903); assay: Positive allosteric modulation of recombinant human GABAA receptor alpha3beta3gamma2 expressed in Xenopus laevis oocytes assessed as potentiation of GABA induced chloride currents relative to GABA; assay type: cell-based
[11] = target: GABA-A receptor; alpha-2/beta-3/gamma-2 (Homo sapiens, UniProt P18507+P28472+P47869); assay: Displacement of [3H]Ro15-1788 from human GABAA receptor alpha2beta3gamma2 expressed in LTK cells […]; assay type: cell-based
[12] = target: T3, GABA-A receptor; alpha-1/beta-3/gamma-2 (Homo sapiens) (UniProt P14867+P18507+P28472); assay: Positive allosteric modulation of recombinant human GABAA receptor alpha1beta3gamma2 expressed in Xenopus oocytes assessed as potentiation of GABA induced chloride current response relative to GABA; assay type: cell-based
[13] = target: GABA-A receptor; alpha-5/beta-3/gamma-2 (Homo sapiens) (UniProt P18507+P28472+P31644); assay: Positive allosteric modulation of recombinant human GABAA receptor alpha5beta3gamma2 expressed in Xenopus laevis oocytes assessed as potentiation of GABA induced chloride currents relative to GABA; assay type: cell-based
[14] = Positive allosteric modulation of wild-type C57BL/6J mouse mitral cell GABAA receptor at 9 to 10 mV holding potential by whole cell patch-clamp method
[15] = target: Gamma-aminobutyric acid receptor subunit alpha-1 (Rattus norvegicus) (UniProt P62813); assay: Agonist activity at GABAA receptor in Sprague-Dawley rat forebrain membranes assessed as enhancement of [3H]muscimol binding at 1 to 100 uM after 2 hrs by radiometric analysis relative to control; conditions: Membrane
[16] = target: Gamma-aminobutyric acid receptor subunit alpha-1 (Rattus norvegicus, UniProt P62813); assay: Agonist activity at GABAA receptor in Sprague-Dawley rat forebrain membranes assessed as enhancement of [3H]muscimol binding after 2 hrs by radiometric analysis; set-up: species or system Membrane
[17] = target: Glycine receptor subunit alpha-3 (Homo sapiens, UniProt O75311); assay: Positive allosteric modulation of recombinant human glycine receptor alpha3 expressed in CHOK1 cells at -60 mV holding potential by whole cell patch-clamp method; assay type: cell-based
[18] = target: T2, GABA-A receptor; alpha-2/beta-3/gamma-2 (Homo sapiens); assay: Positive allosteric modulation of recombinant human GABAA receptor alpha2beta3gamma2 expressed in CHOK1 cells assessed as potentiation of GABA-induced current at 10 uM at -60 mV holding potential by whole cell patch-clamp method relative to GABA; assay type: cell-based
[19] = target: T4, Glycine receptor subunit alpha-1 (Homo sapiens) (UniProt P23415); assay: Positive allosteric modulation of recombinant human glycine receptor alpha1 expressed in CHOK1 cells assessed as potentiation of glycine-induced current at 10 uM at -60 mV holding potential by whole cell patch-clamp method relative to glycine; assay type: cell-based
T4 sequence (whole entry): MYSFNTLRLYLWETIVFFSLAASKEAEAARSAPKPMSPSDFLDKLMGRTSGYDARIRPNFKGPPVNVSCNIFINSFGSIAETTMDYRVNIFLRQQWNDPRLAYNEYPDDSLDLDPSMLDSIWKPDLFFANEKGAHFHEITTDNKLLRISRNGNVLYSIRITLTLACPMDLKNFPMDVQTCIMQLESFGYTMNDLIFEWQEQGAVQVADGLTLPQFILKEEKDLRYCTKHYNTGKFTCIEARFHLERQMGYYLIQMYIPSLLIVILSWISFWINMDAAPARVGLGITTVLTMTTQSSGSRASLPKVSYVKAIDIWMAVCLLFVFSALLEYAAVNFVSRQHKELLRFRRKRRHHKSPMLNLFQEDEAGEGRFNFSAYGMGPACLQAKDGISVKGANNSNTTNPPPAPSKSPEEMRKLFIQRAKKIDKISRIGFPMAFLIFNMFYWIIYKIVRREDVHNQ

[20] = target: T3, GABA-A receptor; alpha-1/beta-3/gamma-2 (Homo sapiens); assay: Positive allosteric modulation of recombinant human GABAA receptor alpha1beta3gamma2 expressed in CHOK1 cells assessed as potentiation of GABA-induced current at 10 uM at -60 mV holding potential by whole cell patch-clamp method relative to GABA; assay type: cell-based
[21] = target: Glycine receptor subunit alpha-3 (Homo sapiens) (UniProt O75311); assay: Positive allosteric modulation of recombinant human glycine receptor alpha3 expressed in CHOK1 cells assessed as potentiation of glycine-induced current at 20 uM at -60 mV holding potential by whole cell patch-clamp method relative to glycine; assay type: cell-based
[22] = target: GABA A receptor alpha-3/beta-2/gamma-2 (Homo sapiens) (UniProt P47870+P18507+P34903); assay: Positive allosteric modulation of recombinant wild type GABAA receptor alpha3beta2gamma2S (unknown origin) expressed in HEK293 cells assessed as potentiation of GABA induced chloride current response relative to 30 uM GABA; assay type: cell-based
[23] = target: T5, GABA A receptor alpha-2/beta-2/gamma-2 (Homo sapiens, UniProt P18507+P47869+P47870); assay: Positive allosteric modulation of recombinant wild type GABAA receptor alpha2beta2gamma2S (unknown origin) expressed in HEK293 cells assessed as potentiation of GABA induced chloride current response treated every 30 secs measured for 2 to 3 secs by patch clamp method; assay type: cell-based
[24] = Positive allosteric modulation of recombinant wild type GABAA receptor alpha4beta2gamma2S (unknown origin) expressed in HEK293 cells assessed as potentiation of GABA induced chloride current response treated every 30 secs measured for 2 to 3 secs by patch clamp method; assay type: cell-based; conditions: Homo sapiens
[25] = target: GABA A receptor alpha-2/beta-2/gamma-2 (Homo sapiens) (UniProt P47870+P18507+P47869); assay: Positive allosteric modulation of recombinant wild type GABAA receptor alpha2beta2gamma2S (unknown origin) expressed in HEK293 cells assessed as potentiation of GABA induced chloride current response relative to GABA; assay type: cell-based
[26] = target: GABA A receptor alpha-3/beta-2/gamma-2 (Homo sapiens, UniProt P18507+P34903+P47870); assay: Positive allosteric modulation of recombinant wild type GABAA receptor alpha3beta2gamma2S (unknown origin) expressed in HEK293 cells assessed as potentiation of GABA induced chloride current response treated every 30 secs measured for 2 to 3 secs by patch clamp method; assay type: cell-based
HEK293 = assay: Positive allosteric modulation of recombinant wild type GABAA receptor alpha4beta2gamma2S (unknown origin) expressed in HEK293 cells assessed as potentiation of GABA induced chloride current response relative to GABA; assay type: cell-based; conditions: Homo sapiens
[27] = target: T6, GABA-A receptor; alpha-1/beta-2/gamma-2 (Homo sapiens, UniProt P14867+P18507+P47870); assay: Agonist activity at recombinant human GABAA receptor alpha1beta2gamma2L expressed in Xenopus laevis oocytes incubated for 30 secs by electrophysiological method; assay type: cell-based
[28] = target: GABA A receptor alpha-1/beta-1/gamma-2 (Homo sapiens, UniProt P14867+P18505+P18507); assay: Agonist activity at recombinant human GABAA receptor alpha1beta1gamma2L expressed in Xenopus laevis oocytes incubated for 30 secs by electrophysiological method; assay type: cell-based
[29] = target: T5, GABA A receptor alpha-2/beta-2/gamma-2; assay: Agonist activity at recombinant human GABAA receptor alpha2beta2gamma2L expressed in Xenopus laevis oocytes incubated for 30 secs by electrophysiological method; assay type: cell-based
[30] = target: T6, GABA-A receptor; alpha-1/beta-2/gamma-2; assay: Positive allosteric modulation of GABAA receptor alpha1beta2gamma2 (unknown origin); assay type: protein-complex assay
[31] = target: Gamma-aminobutyric acid receptor subunit alpha-4/beta-2/delta (Homo sapiens, UniProt O14764+P47870+P48169); assay: Positive allosteric modulation of GABAA receptor alpha4beta2delta (unknown origin); assay type: protein-complex assay
[32] = target: Glycine receptor alpha-3/beta (Homo sapiens, UniProt O75311+P48167); assay: Inhibition of recombinant human glycine receptor alpha3beta expressed in HEK293 cells; assay type: cell-based
[33] = target: Glycine receptor subunit alpha-2/beta (Homo sapiens, UniProt P23416+P48167); assay: Inhibition of recombinant human glycine receptor alpha2beta expressed in HEK293 cells; assay type: cell-based
[34] = target: Glycine receptor (alpha-1/beta) (Homo sapiens, UniProt P23415+P48167); assay: Inhibition of recombinant human glycine receptor alpha1beta expressed in HEK293 cells; assay type: cell-based
[35] = target: T4, Glycine receptor subunit alpha-1 (Homo sapiens); assay: Positive allosteric modulation of recombinant human glycine receptor alpha1 expressed in HEK293 cells assessed as potentiation of glycine-induced current at -60 mV holding potential by whole cell patch-clamp method relative to 10 uM glycine; assay type: cell-based
[36] = target: T7, Glycine receptor subunit alpha-1 (Homo sapiens, UniProt P23415); assay: Positive allosteric modulation of recombinant human glycine receptor alpha1 expressed in HEK293 cells assessed as increase in glycine-induced current at -60 mV holding potential by whole cell patch-clamp method; assay type: cell-based
T7 sequence (P23415 whole entry): T4 sequence (whole entry)

T6 sequence (P14867 whole entry): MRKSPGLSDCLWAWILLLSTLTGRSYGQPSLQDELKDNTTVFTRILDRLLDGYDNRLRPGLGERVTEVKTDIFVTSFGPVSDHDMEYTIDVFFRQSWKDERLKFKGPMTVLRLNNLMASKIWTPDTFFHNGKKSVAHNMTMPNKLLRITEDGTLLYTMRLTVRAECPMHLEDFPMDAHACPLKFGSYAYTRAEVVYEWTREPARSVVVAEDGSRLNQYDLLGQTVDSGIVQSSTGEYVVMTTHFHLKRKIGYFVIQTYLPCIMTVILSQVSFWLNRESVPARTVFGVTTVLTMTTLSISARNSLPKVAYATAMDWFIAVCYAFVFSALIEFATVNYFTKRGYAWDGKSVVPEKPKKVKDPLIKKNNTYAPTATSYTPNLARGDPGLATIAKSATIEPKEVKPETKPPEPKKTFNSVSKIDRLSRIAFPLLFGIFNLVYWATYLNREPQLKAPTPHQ
T6 sequence (P47870 whole entry): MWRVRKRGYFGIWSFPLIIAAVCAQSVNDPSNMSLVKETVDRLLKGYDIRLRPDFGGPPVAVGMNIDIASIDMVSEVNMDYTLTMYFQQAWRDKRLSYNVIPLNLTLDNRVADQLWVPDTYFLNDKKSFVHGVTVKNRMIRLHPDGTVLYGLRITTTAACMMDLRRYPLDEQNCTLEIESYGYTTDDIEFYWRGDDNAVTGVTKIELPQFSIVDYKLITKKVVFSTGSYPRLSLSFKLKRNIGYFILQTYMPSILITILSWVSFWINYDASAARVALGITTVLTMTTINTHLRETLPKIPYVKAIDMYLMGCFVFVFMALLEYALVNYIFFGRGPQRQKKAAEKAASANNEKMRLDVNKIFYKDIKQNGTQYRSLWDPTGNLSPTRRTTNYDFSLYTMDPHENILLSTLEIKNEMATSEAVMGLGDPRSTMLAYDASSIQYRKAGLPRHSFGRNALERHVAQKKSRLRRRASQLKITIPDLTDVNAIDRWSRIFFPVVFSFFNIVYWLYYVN
T6 sequence (P18507 whole entry): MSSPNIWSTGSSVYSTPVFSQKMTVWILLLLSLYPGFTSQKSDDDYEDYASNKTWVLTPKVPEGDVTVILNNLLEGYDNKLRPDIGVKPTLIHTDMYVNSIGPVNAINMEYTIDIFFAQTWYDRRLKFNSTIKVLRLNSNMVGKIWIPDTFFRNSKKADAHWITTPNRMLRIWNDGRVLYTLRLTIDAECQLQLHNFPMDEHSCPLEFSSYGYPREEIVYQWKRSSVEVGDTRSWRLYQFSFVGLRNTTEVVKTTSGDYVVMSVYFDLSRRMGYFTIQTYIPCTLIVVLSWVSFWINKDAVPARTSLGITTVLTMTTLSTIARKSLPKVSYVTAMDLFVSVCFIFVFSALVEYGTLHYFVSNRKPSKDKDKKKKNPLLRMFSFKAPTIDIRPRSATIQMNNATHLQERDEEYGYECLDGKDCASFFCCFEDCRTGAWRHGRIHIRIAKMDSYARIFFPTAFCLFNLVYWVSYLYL
T5 sequence (P47870 whole entry): as the sequence (P47870 whole entry) above
T5 sequence (P18507 whole entry): as the sequence (P18507 whole entry) above
T5 sequence (P47869 whole entry): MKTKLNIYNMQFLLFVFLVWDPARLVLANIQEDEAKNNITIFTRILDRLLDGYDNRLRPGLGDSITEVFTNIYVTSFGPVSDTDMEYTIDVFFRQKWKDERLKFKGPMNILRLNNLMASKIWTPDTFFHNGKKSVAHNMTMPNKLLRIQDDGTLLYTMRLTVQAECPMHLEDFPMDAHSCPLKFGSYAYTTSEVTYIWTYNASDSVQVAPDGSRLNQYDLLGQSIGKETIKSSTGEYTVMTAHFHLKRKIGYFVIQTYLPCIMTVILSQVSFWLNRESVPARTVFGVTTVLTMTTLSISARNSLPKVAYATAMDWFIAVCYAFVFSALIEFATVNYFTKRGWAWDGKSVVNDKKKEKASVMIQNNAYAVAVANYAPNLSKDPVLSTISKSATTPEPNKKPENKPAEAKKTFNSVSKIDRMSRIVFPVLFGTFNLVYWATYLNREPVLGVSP
Gamma-aminobutyric acid receptor subunit alpha-1 (Rattus norvegicus), sequence (P62813 whole entry): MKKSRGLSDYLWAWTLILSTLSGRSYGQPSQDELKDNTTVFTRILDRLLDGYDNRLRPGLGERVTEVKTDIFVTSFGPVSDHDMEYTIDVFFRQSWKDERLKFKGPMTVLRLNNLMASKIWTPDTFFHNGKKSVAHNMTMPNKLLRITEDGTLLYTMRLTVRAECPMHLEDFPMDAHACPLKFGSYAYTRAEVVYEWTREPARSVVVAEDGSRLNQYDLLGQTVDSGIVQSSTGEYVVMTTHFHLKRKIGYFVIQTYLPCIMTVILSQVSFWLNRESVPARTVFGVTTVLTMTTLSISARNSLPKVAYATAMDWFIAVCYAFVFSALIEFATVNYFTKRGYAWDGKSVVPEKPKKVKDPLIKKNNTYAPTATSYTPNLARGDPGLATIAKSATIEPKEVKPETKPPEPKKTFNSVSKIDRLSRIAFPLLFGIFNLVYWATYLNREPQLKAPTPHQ
Gamma-aminobutyric acid receptor subunit alpha-1, sequence (P62813 whole entry): as above
Glycine receptor subunit alpha-3 (Homo sapiens), sequence (O75311 whole entry): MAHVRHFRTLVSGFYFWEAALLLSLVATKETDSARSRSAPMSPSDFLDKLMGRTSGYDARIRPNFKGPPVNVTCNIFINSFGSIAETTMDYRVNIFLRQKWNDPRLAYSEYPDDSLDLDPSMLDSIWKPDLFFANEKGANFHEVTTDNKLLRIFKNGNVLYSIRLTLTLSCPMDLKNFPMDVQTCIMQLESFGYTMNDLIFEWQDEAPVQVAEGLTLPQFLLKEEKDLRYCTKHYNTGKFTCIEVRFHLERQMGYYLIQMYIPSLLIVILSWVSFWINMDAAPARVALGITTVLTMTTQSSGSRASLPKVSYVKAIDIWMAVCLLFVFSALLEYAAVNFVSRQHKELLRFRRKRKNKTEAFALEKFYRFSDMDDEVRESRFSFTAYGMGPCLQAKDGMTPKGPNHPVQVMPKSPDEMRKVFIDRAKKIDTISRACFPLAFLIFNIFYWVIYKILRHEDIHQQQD
Glycine receptor subunit alpha-3, sequence (O75311 whole entry): as above
Glycine receptor alpha-3/beta, sequence (O75311 whole entry): as above
Glycine receptor alpha-3/beta, sequence (P48167 whole entry): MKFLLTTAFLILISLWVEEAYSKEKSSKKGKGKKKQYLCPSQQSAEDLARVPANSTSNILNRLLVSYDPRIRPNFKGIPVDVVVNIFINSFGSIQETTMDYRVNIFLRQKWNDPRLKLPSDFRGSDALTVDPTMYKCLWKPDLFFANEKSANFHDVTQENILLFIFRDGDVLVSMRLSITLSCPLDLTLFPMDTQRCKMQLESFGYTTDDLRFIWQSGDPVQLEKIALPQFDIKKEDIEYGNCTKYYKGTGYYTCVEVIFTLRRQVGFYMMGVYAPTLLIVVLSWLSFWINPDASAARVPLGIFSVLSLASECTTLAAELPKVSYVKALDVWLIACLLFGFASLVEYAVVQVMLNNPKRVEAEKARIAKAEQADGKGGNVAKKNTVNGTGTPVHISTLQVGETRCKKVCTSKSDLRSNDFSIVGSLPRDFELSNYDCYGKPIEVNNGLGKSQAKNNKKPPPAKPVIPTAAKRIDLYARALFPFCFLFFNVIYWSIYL
GABA A receptor alpha-1/beta-1/gamma-2, sequence (P14867 whole entry): as the sequence (P14867 whole entry) above
GABA A receptor alpha-1/beta-1/gamma-2, sequence (P18507 whole entry): as the sequence (P18507 whole entry) above
GABA A receptor alpha-1/beta-1/gamma-2, sequence (P18505 whole entry): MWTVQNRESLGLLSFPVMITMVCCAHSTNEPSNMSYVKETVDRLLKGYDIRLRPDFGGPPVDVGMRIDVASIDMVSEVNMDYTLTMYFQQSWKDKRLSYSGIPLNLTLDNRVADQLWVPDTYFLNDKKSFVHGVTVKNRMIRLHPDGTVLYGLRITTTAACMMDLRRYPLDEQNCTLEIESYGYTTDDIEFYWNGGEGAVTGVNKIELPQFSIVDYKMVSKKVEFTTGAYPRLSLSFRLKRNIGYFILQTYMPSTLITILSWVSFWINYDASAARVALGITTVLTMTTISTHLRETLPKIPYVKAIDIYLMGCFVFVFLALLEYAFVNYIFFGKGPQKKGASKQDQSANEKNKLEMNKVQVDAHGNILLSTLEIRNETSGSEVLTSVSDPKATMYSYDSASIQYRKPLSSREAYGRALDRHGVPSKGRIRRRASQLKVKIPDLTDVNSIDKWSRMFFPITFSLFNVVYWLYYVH
Glycine receptor (alpha-1/beta), sequence (P48167 whole entry, one chain of several): as the sequence (P48167 whole entry) above
GABA A receptor alpha-3/beta-2/gamma-2, sequence (P47870 whole entry): as the sequence (P47870 whole entry) above
GABA A receptor alpha-3/beta-2/gamma-2, sequence (P18507 whole entry): as the sequence (P18507 whole entry) above
GABA A receptor alpha-3/beta-2/gamma-2, sequence (P34903 whole entry): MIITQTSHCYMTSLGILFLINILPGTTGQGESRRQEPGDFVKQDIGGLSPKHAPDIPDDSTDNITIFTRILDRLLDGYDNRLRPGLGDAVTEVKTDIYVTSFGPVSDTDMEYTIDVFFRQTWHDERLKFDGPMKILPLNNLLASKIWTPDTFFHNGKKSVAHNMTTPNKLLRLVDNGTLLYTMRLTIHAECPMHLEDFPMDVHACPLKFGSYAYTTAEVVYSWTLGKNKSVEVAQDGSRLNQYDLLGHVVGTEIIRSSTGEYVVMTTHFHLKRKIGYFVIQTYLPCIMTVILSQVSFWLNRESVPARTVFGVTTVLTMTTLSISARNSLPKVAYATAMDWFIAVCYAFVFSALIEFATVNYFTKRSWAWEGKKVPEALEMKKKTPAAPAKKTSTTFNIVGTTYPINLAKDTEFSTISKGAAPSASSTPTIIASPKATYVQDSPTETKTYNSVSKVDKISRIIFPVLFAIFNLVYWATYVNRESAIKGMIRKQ

C#Cc1ccc2c(c1)C(c1ccccc1F)=N[C@H](C)c1c(C(=O)NC)ncn1-2
Ki [1]: 55 nM
Ki [2]: 850 nM
Ki [3]: 360 nM
Ki [4]: 660 nM

COc1ccc(-n2nc3c4cc(Cl)ccc4[nH]cc-3c2=O)cc1
fold change (FC) [5]: 2
fold change (FC) [6]: 8
Ki [7]: > 10000 nM
fold change (FC) [8]: 20
Ki [9]: 0.3 nM
fold change (FC) [10]: 5
Ki [11]: > 10000 nM
fold change (FC) [12]: 10
fold change (FC) [13]: 2

CC1CC(=O)C=C(Nc2ccc(OC(F)(F)F)cc2)C1 (configuration not stated)
EC50 [14]: 24500 nM

CCCCNC(=O)c1cc(-c2ccc(F)cc2F)ccc1O
Emax [15]: 56%
EC50 [16]: 15000 nM

O=S(=O)(NCCOc1cccc2cccnc12)c1ccc(F)cc1
EC50 [17]: 3900 nM
fold change (FC) [18]: 0
fold change (FC) [19]: 39.7
fold change (FC) [20]: 0
fold change (FC) [21]: 28

COc1ccc(C(=O)/C=C/c2cc(OC)ccc2O)cc1
fold change (FC) [22]: 19.6
EC50 [23]: 7600 nM
EC50 [24]: 8100 nM
fold change (FC) [25]: 13.6
EC50 [26]: 17700 nM
fold change (FC) (HEK293): 6.2

Oc1c(Br)cc(Br)cc1-c1cc(Br)cc(Br)c1O [BROMOPHENE]
EC50 [27]: 720 nM
EC50 [28]: 320 nM
EC50 [29]: 1080 nM

C[C@@]1(O)CC[C@H]2[C@H](CC[C@@H]3[C@@H]2CC[C@]2(C)[C@@H](C(=O)Cn4cc(C#N)cn4)CC[C@@H]32)C1 [ZURANOLONE]
EC50 [30]: 374 nM
EC50 [31]: 163 nM

C=C[C@]12CN(C)[C@@H]3[C@H]4CO[C@H](C[C@H]41)[C@]1(C(=O)Nc4ccccc41)[C@@H]32 [GELSEMINE]
IC50 [32]: 30000 to 50000 nM
IC50 [33]: 30000 to 50000 nM
IC50 [34]: 30000 to 50000 nM
fold change (FC) [35]: 0.55
EC50 [36]: 590 nM
